Legend:
[1] = Maximum solubility of Trifarotene in various oily phases; assay type: physicochemical
[2] = Chemical stability of Trifarotene in oily phases (HPLC-UV); assay type: physicochemical
Protocol: The stability of the active agent was evaluated by liquid chromatography coupled to a UV detector (HPLC-UV).

[3] = in Caprylic/capric acid triglycerides (Miglyol ® 812N)
[4] = in Diisopropyl adipate (Schercemol Dia Ester)
[5] = in Macrogol oleate (Labrafil ® M1944CS)
[6] = in Octyldodecanol (Eutanol ® G)
[7] = in PPG-15 stearyl ether (Arlamol PS11E-LQ)
[8] = in Propylene glycol dicaprylate/dicaprate (Myritol ® PC)
[9] = in Propylene glycol monolaurate (Lauroglycol ® FCC)

Maximum solubility ([1]; in Alkyl (C12-15) benzoate (Crodamol AB)): 0.026 % w/w
Maximum solubility [1, 3]: 0.019 % w/w
Maximum solubility [1, 4]: 0.297 % w/w
Maximum solubility [1, 5]: 0.156 % w/w
Maximum solubility ([1]; in Mineral oil): 0.0001 % w/w
Maximum solubility [1, 6]: 0.137 % w/w
Maximum solubility [1, 7]: 0.292 % w/w
Maximum solubility [1, 8]: 0.069 % w/w
Maximum solubility ([1]; in Propylene glycol monocaprylate (Capryol ® 90)): 0.802 % w/w
Maximum solubility [1, 9]: 0.296 % w/w
Maximum solubility ([1]; in Sweet almond oil): 0.011 % w/w
Stability [2, 3]: 6 months AT/40 °C
Stability [2, 4]: 6 months AT/40 °C
Stability [2, 5]: 6 months AT/40 °C
Stability [2, 6]: Unstable
Stability [2, 7]: 6 months AT/40 °C
Stability [2, 8]: Unstable
Stability ([2]; in Propylene glycol monocaprylate (Capryol ® 90), AT = ambient temperature): 6 months AT/40 °C
Stability [2, 9]: 6 months AT/40 °C
Stability ([2]; in Sweet almond oil): 6 months AT/40 °C
Compound: CC(C)(C)c1cc(-c2cc(-c3ccc(C(=O)O)cc3)ccc2OCCO)ccc1N1CCCC1 [Trifarotene, 3″-tert-butyl-4′-(2-hydroxyethoxy)-4″-pyrrolidin-1-yl-[1,1′;3′,1″]-terphenyl-4-carboxylic acid]
